System: L5178/MDR1 mouse T-cell lymphoma cells
Test: cells
Details: Mus musculus, T-cell, 72 h, read-out: Inhibition (%) of viability
Source text: For the determination of relative number of viable cells before and after treatments, in most cases the MTT assay was used. This calorimetric assay is based on the ability of living cells, but not dead cells, to reduce 3-(4, 5-dimethyl thiazol-2-yl)-2, 5-diphenyltetrazolium bromide [Carmichael, J, De Graff, W. G., Gazdar, A. F., Minna, J. D. and Mitchell, J. B. (1987), “Evaluation oftetrazolium-based semiautomated calorimetric assay: Assessment of chemosensitivity testing,” Cancer Res., 47, 936-942]. For this assay, cells were plated in 96-well plates (10,000-30,000 cells in case of cultured cells, 100,000 cells in case of healthy lymphocytes, and 200,000 cells in case of chronic lymphocytic leukemia or non-Hodgkin lymphocytes) in the respective incubation media. After a 24-h resting period, the cells were treated with the test agents and then incubated (in CO2 incubator under humidified atmosphere) for 72 hours (final incubation volume, 150 μl). The MTT assay was performed both with the untreated and treated cell cultures at the conclusion of the incubation. Often, the MTT assay also was performed at the start of treatments to allow assessment of proliferation rates in the control and treated cell cultures. All data presented are the average of 4 incubations (in 4 separate wells) with the same cell population.
L5178/MDR1 cells were seeded at 10,000 cells per well in 96-well plates and then incubated for 72 hours in the absence or presence of 5 μg/ml of CCcompound104 and various concentrations of CCcompound26 as indicated in Table 6.
Epirubicin, like doxorubicin and other antracyclins, is an MDR1 substrate. The goal of this experiment was to use epirubicin as a model compound to determine if in L5178/MDR1 cells CCcompound104 also can enhance the effects of MDR1 substrate anti-cancer agents other than CCcompound26 and other thioxanthene or thioxanthone CC compounds. The parent and MDR1 expressing cells were seeded at 30,000 cells per well in 96-well microplates and after a 24-h resting period treated with increasing concentrations of epirubicin n in the absence or presence of 5 μg/ml of CCcompound104 for 72 hours.

**Q.** C=CC[N+](CC)(CC)CC/C=C1/c2ccccc2Sc2ccc(C)cc21.[Br-] [CCcompound26, N,N-Diethyl-N-allyl-3-(2-methyl-9H-thioxanthen-9-ylidene)-propan-1-aminiumbromide] was tested. Which cytotoxicity at 1.56 µM did it give?
**A.** 0%

**Q.** And the cytotoxicity at 3.12 µM?
**A.** 0%

**Q.** And the cytotoxicity at 6.25 µM?
**A.** 10%

**Q.** What about the cytotoxicity at 12.5 µM of the same compound?
**A.** 15%

**Q.** What about the cytotoxicity at 25 µM of the same compound?
**A.** 13%

**Q.** And the cytotoxicity at 100 µM?
**A.** 56%

From US20080207738A1, “DRUG COMBINATIONS TO TREAT DRUG RESISTANT TUMORS” (priority 2007, published 2008)
